We go through 15 molecules from patent publication US20230322767A1, “ARYL SUBSTITUTED PYRROLO-PYRIDINONES AND THERAPEUTIC USES THEREOF” (Bayer Aktiengesellschaft, priority 2020, published 2023).

One test concerns the target CSNK1A1 (Homo sapiens (Human), UniProt P48729). Kind of test: CSNK1A1 Assay 2 (ADP-Glo, 1 μM ATP). Format: biochemical. The settings on record: median, read-out: CSNK1A1 Assay 2 IC50 [mol/l] (median). The protocol:
CSNK1A1-inhibitory activity of compounds of the present invention in presence of 1 μM adenosine-tri-phosphate (ATP) was quantified employing the CSNK1A1 assay as described in the following paragraphs. In essence, the enzyme activity is measured by quantification of the adenosine-di-phosphate (ADP), which is generated as a co-product of the enzyme reaction, via the “ADP-Glo™ Kinase Assay” kit from the company Promega. This detection system works as follows: In a first step the ATP not consumed in the kinase reaction is quantitatively converted to cAMP employing an adenylate cyclase (“ADP-Glo-reagent”), then the adenylate cyclase is stopped and the ADP generated in the kinase reaction converted to ATP which generates in a luciferase-based reaction a glow-luminescence signal (“Kinase Detection Reagent”).
As substrate for the kinase reaction the biotinylated peptide biotin-Ahx-KRRRAL-pS-VASLPGL (C-terminus in amide form) was used which can be purchased e.g. from the company Biosyntan (Berlin-Buch, Germany).
For the assay 50 nl of a 100 fold concentrated solution of the test compound in DMSO was pipetted into a white 1536-well microtiter plate (Greiner Bio-One, Frickenhausen, Germany), 2 μL of a solution of CSNK1A1 in aqueous assay buffer [50 mM HEPES pH 7.5, 10% (v/v) glycerol, 10 mM MgCl2, 50 mM NaCl, 1 mM dithiothreitol, 0.01% (w/v) bovine serum albumin, 0.01% (v/v) Triton X-100] were added and the mixture was incubated for 15 min at 22° C. to allow pre-binding of the test compounds to the enzyme before the start of the kinase reaction. […] The concentration of CSNK1A1 was adjusted depending of the activity of the enzyme lot and was chosen appropriate to have the assay in the linear range, a typical concentrations are about 0.0375 ng/μL. The reaction was stopped by the addition of 2.5 μL of “ADP-Glo-reagent” (1:1.5 fold diluted with water) and the resulting mixture was incubated at 22° C. for 1 h to convert the ATP not consumed in the kinase reaction completely […]. Subsequently 2.5 μL of the “kinase detection reagent” (1.2 fold more concentrated than recommended by the producer) were added, the resulting mixture was incubated at 22° C. for 1 h and then the luminescence measured with a suitable measurement instrument (e.g. Viewlux™ from Perkin-Elmer). The amount of emitted light was taken as a measure for the amount of ADP generated and thereby for the activity of the CSNK1A1.
A general note: ADP-Glo first removes unused ATP, then detects ADP through luciferase.

The target in a further test is CSNK1D (Homo sapiens (Human), UniProt P48730). The experiment in a line: CSNK1D Assay (ADP-Glo, 1 μM ATP). The class given is biochemical. The conditions noted are these: median, read-out: CSNK1D IC50 [mol/l] (median). The protocol:
CSNK1D-inhibitory activity of compounds of the present invention in presence of 1 μM adenosine-tri-phosphate (ATP) was quantified employing the CSNK1 D assay as described in the following paragraphs. In essence, the enzyme activity is measured by quantification of the adenosine-di-phosphate (ADP), which is generated as a co-product of the enzyme reaction, via the “ADP-Glo™ Kinase Assay” kit from the company Promega. This detection system works as follows: In a first step the ATP not consumed in the kinase reaction is quantitatively converted to cAMP employing an adenylate cyclase (“ADP-Glo-reagent”), then the adenylate cyclase is stopped and the ADP generated in the kinase reaction converted to ATP which generates in a luciferase-based reaction a glow-luminescence signal (“Kinase Detection Reagent”).
As substrate for the kinase reaction the biotinylated peptide Btn-Ahx-[…] (C-terminus in amide form) was used which can be purchased e.g. from the company Biosyntan (Berlin-Buch, Germany).
For the assay 50 nl of a 100 fold concentrated solution of the test compound in DMSO was pipetted into a white 1536-well microtiter plate (Greiner Bio-One, Frickenhausen, Germany), 2 μL of a solution of CSNK1D in aqueous assay buffer [50 mM HEPES pH 7.5, 10% (v/v) glycerol, 10 mM MgCl2, 50 mM NaCl, 1 mM dithiothreitol, 0.01% (w/v) bovine serum albumin, 0.01% (v/v) Triton X-100] were added and the mixture was incubated for 15 min at 22° C. to allow pre-binding of the test compounds to the enzyme before the start of the kinase reaction. […] The concentration of CSNK1D was adjusted depending of the activity of the enzyme lot and was chosen appropriate to have the assay in the linear range, a typical concentration is about 0.5 ng/μL. The reaction was stopped by the addition of 2.5 μL of “ADP-Glo-reagent” (1:1.5 fold diluted with water) and the resulting mixture was incubated at 22° C. for 1 h to convert the ATP not consumed in the kinase reaction completely […]. Subsequently 2.5 μL of the “kinase detection reagent” (1.2 fold more concentrated than recommended by the producer) were added, the resulting mixture was incubated at 22° C. for 1 h and then the luminescence measured with a suitable measurement instrument (e.g. Viewlux™ from Perkin-Elmer). The amount of emitted light was taken as a measure for the amount of ADP generated and thereby for the activity of the CSNK1D.

Each structure is given as a SMILES string.

Sequence of CSNK1D (P48730 whole entry): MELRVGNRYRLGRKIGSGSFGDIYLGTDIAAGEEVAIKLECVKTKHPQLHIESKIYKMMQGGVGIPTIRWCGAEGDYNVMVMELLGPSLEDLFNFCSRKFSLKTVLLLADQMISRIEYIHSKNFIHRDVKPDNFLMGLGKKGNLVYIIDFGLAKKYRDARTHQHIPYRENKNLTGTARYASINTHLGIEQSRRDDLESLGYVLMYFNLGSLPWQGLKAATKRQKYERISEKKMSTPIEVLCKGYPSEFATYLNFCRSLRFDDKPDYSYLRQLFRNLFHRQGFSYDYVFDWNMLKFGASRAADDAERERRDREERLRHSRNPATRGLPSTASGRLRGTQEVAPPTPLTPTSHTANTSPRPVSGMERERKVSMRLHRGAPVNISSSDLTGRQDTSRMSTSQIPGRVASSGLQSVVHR
Sequence of CSNK1A1 (P48729 whole entry): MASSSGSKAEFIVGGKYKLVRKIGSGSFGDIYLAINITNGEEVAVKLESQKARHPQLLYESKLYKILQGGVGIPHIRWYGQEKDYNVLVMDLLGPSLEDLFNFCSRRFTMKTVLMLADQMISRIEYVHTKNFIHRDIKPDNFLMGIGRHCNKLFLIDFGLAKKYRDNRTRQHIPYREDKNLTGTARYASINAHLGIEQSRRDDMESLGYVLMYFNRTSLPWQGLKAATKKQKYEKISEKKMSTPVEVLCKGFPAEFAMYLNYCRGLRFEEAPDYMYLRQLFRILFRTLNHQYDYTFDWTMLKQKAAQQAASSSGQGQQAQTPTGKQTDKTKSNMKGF

Regarding `CC(C(=O)Nc1cc(-c2[nH]c3c(c2-c2ccccc2)C(=O)N(C)C2(CCC2)C3)ccn1)c1ccc(F)cc1` (racemic) [Example 52, 2-(4-fluorophenyl)-N-[4-(5′-methyl-4′-oxo-3′-phenyl-1′,4′,5′,7′-tetrahydrospiro[cyclobutane-1,6′-pyrrolo[3,2-c]pyridin]-2′-yl)pyridin-2-yl]propanamide], the results for the IC50 on CSNK1A1 and on CSNK1D were 3.4 nM and 3.8 nM, respectively.

`CN1CC(CC2CC2)c2[nH]c(-c3ccnc(NC(=O)Cc4ccc(F)cc4)c3)c(-c3ccccc3)c2C1=O` (racemic) [Example 55, N-{4-[7-(cyclopropylmethyl)-5-methyl-4-oxo-3-phenyl-4,5,6,7-tetrahydro-1H-pyrrolo[3,2-c]pyridin-2-yl]pyridin-2-yl}-2-(4-fluorophenyl)acetamide]: the figures for the IC50 on CSNK1A1 and at CSNK1D were 2 nM and 2.2 nM, respectively.

For `CC(C(=O)Nc1cc(-c2[nH]c3c(CC4CC4)cn(C)c(=O)c3c2-c2ccccc2)ccn1)c1ccc(F)cc1` (racemic) [Example 58, N-{4-[7-(cyclopropylmethyl)-5-methyl-4-oxo-3-phenyl-4,5-dihydro-1H-pyrrolo[3,2-c]pyridin-2-yl]pyridin-2-yl}-2-(4-fluorophenyl)propanamide], the IC50 on CSNK1A1 is 5.2 nM; at CSNK1D it was 4 nM.

For `Cn1cc(CC2CC2)c2[nH]c(-c3ccnc(NC(=O)C(CC(F)F)c4ccc(F)cc4)c3)c(-c3ccccc3)c2c1=O` (racemic) [Example 60, N-{4-[7-(cyclopropylmethyl)-5-methyl-4-oxo-3-phenyl-4,5-dihydro-1H-pyrrolo[3,2-c]pyridin-2-yl]pyridin-2-yl}-4,4-difluoro-2-(4-fluorophenyl)butanamide], the results for the IC50 on CSNK1A1 and at CSNK1D were 15 nM and 9.5 nM, respectively.

`CN1CC(CC2CC2)c2[nH]c(-c3ccnc(NC(=O)Cc4ccc(F)cc4)c3)c(-c3ccc(F)cc3)c2C1=O` (racemic) [Example 61, N-{4-[7-(cyclopropylmethyl)-3-(4-fluorophenyl)-5-methyl-4-oxo-4,5,6,7-tetrahydro-1H-pyrrolo[3,2-c]pyridin-2-yl]pyridin-2-yl}-2-(4-fluorophenyl)acetamide]: the IC50 on CSNK1A1 is 2 nM; at CSNK1D it was 1.8 nM.

As for `CC(C(=O)Nc1cc(-c2[nH]c3c(CC4CC4)cn(C)c(=O)c3c2-c2ccc(F)cc2)ccn1)c1ccc(F)cc1` (racemic) [Example 63, N-{4-[7-(cyclopropylmethyl)-3-(4-fluorophenyl)-5-methyl-4-oxo-4,5-dihydro-1H-pyrrolo[3,2-c]pyridin-2-yl]pyridin-2-yl}-2-(4-fluorophenyl)propanamide], the IC50 came out at 12 nM at CSNK1A1 and 8 nM at CSNK1D.

For `CN1CCc2[nH]c(-c3ccnc(NC(=O)C(CC(F)F)c4ccc(F)cc4)c3)c(-c3ccccc3)c2C1=O` (single isomer, unassigned) [Example 3, 4,4-difluoro-2-(4-fluorophenyl)-N-[4-(5-methyl-4-oxo-3-phenyl-4,5,6,7-tetrahydro-1H-pyrrolo[3,2-c]pyridin-2-yl)pyridin-2-yl]butanamide], the IC50 worked out at 4.7 nM on CSNK1A1 and 5.9 nM on CSNK1D.

On to `CN1CCc2[nH]c(-c3ccnc(NC(=O)C(CC(F)F)c4ccc(F)cc4)c3)c(-c3ccccc3)c2C1=O` (single isomer, unassigned) [Example 4, 4,4-difluoro-2-(4-fluorophenyl)-N-[4-(5-methyl-4-oxo-3-phenyl-4,5,6,7-tetrahydro-1H-pyrrolo[3,2-c]pyridin-2-yl)pyridin-2-yl]butanamide], for which the IC50 is 1.1 nM on CSNK1A1 and 2.3 nM on CSNK1D.

For `CN1CCc2[nH]c(-c3ccnc(NC(=O)C(CC(F)F)c4ccc(F)cc4)c3)c(-c3cccnc3)c2C1=O` (single isomer, unassigned) [Example 10, 4,4-difluoro-2-(4-fluorophenyl)-N-{4-[5-methyl-4-oxo-3-(pyridin-3-yl)-4,5,6,7-tetrahydro-1H-pyrrolo[3,2-c]pyridin-2-yl]pyridin-2-yl}butanamide], the IC50 on CSNK1A1 stood at 110 nM; on CSNK1D, 64 nM.

As for `CN1CCc2[nH]c(-c3ccnc(NC(=O)C(CC(F)F)c4ccc(F)cc4)c3)c(-c3cccnc3)c2C1=O` (single isomer, unassigned) [Example 11, 4,4-difluoro-2-(4-fluorophenyl)-N-{4-[5-methyl-4-oxo-3-(pyridin-3-yl)-4,5,6,7-tetrahydro-1H-pyrrolo[3,2-c]pyridin-2-yl]pyridin-2-yl}butanamide], the IC50 at CSNK1A1 was found to be 4.3 nM; on CSNK1D it was 4.7 nM.

Consider `Cn1cc(CC(F)(F)F)c2[nH]c(-c3ccnc(NC(=O)C(CC(F)F)c4ccc(F)cc4)c3)c(-c3ccc(F)cc3)c2c1=O` (single isomer, unassigned) [Example 27, 4,4-difluoro-2-(4-fluorophenyl)-N-{4-[3-(4-fluorophenyl)-5-methyl-4-oxo-7-(2,2,2-trifluoroethyl)-4,5-dihydro-1H-pyrrolo[3,2-c]pyridin-2-yl]pyridin-2-yl}butanamide], for which the IC50 at CSNK1A1 was 12 nM; at CSNK1D it was 5.8 nM.

Consider `Cn1cc(CC(F)(F)F)c2[nH]c(-c3ccnc(NC(=O)C(CC(F)F)c4ccc(F)cc4)c3)c(-c3ccc(F)cc3)c2c1=O` (single isomer, unassigned) [Example 28, 4,4-difluoro-2-(4-fluorophenyl)-N-{4-[3-(4-fluorophenyl)-5-methyl-4-oxo-7-(2,2,2-trifluoroethyl)-4,5-dihydro-1H-pyrrolo[3,2-c]pyridin-2-yl]pyridin-2-yl}butanamide], for which the IC50 at CSNK1A1 worked out at 6.1 nM; on CSNK1D, 5 nM.

`CC1(C)CNC(=O)c2c1[nH]c(-c1ccnc(NC(=O)C(CC(F)F)c3ccc(F)cc3)c1)c2-c1ccccc1` (single isomer, unassigned) [Example 44, N-[4-(7,7-dimethyl-4-oxo-3-phenyl-4,5,6,7-tetrahydro-1H-pyrrolo[3,2-c]pyridin-2-yl)pyridin-2-yl]-4,4-difluoro-2-(4-fluorophenyl)butanamide]: the IC50 at CSNK1A1 was found to be 11 nM; on CSNK1D, 12 nM.

For the molecule `CC1(C)CNC(=O)c2c1[nH]c(-c1ccnc(NC(=O)C(CC(F)F)c3ccc(F)cc3)c1)c2-c1ccccc1` (single isomer, unassigned) [Example 45, N-[4-(7,7-dimethyl-4-oxo-3-phenyl-4,5,6,7-tetrahydro-1H-pyrrolo[3,2-c]pyridin-2-yl)pyridin-2-yl]-4,4-difluoro-2-(4-fluorophenyl)butanamide], the IC50 on CSNK1A1 was found to be 2 nM; on CSNK1D, 2.7 nM.

For `CC(C(=O)Nc1cc(-c2[nH]c3c(c2-c2ccccc2)C(=O)NCC3(C)C)ccn1)c1ccc(F)cc1` (single isomer, unassigned) [Example 47, N-[4-(7,7-dimethyl-4-oxo-3-phenyl-4,5,6,7-tetrahydro-1H-pyrrolo[3,2-c]pyridin-2-yl)pyridin-2-yl]-2-(4-fluorophenyl)propanamide], the IC50 on CSNK1A1 came out at 13 nM; at CSNK1D, 9.6 nM.
